Results: US20240287007A1, “N-(1,3,4-OXADIAZOL-2-YL)PHENYLCARBOXAMIDES AS HERBICIDES” (BAYER AKTIENGESELLSCHAFT, priority 2021, published 2024)

What was measured:
Type in all cases: in vivo
AVEFA (Avena fatua) [1] = test: Pre-emergence herbicidal effect against AVEFA; conditions: 80 g/ha, scored visually after 3 weeks
Description: (§1) Seeds of monocotyledonous and dicotyledonous weed plants and crop plants are laid out in sandy loam soil in wood-fiber pots and covered with soil. The compounds of the invention, formulated in the form of wettable powders (WP) or as emulsion concentrates (EC), are then applied to the surface of the covering soil as aqueous suspension or emulsion at a water application rate equating to 600 to 800 l/ha with addition of 0.2% wetting agent. After the treatment, the pots are placed in a greenhouse and kept under good growth conditions for the trial plants. The damage to the test plants is scored visually after a test period of 3 weeks by comparison with untreated controls (herbicidal activity in percent (%): 100% activity=the plants have died, 0% activity=like control plants).

LOLRI (Lolium rigidum) = test: Pre-emergence herbicidal effect against LOLRI; conditions: 80 g/ha, scored visually after 3 weeks
Description: as §1

KCHSC (Kochia scoparia) [2] = test: Pre-emergence herbicidal effect against KCHSC; conditions: scored visually after 3 weeks
Description: as §1

[3] = test system: ECHCG (Echinochloa crus-galli); test: Post-emergence herbicidal action against ECHCG; conditions: visual assessment after about 3 weeks
Protocol: (§2) Seeds of monocotyledonous and dicotyledonous weed and crop plants are laid out in sandy loam soil in wood-fiber pots, covered with soil and cultivated in a greenhouse under good growth conditions. 2 to 3 weeks after sowing, the trial plants are treated at the one-leaf stage. The compounds of the invention, formulated in the form of wettable powders (WP) or as emulsion concentrates (EC), are then sprayed onto the green parts of the plants as aqueous suspension or emulsion at a water application rate equating to 600 to 800 l/ha with addition of 0.2% wetting agent. After the test plants have been left to stand in the greenhouse under optimal growth conditions for about 3 weeks, the action of the preparations is assessed visually in comparison to untreated controls (herbicidal action in percent (%): 100% activity=the plants have died, 0% activity=like control plants).

[4] = test system: MATIN (Matricaria inodora); test: Post-emergence herbicidal action against MATIN; conditions: visual assessment after about 3 weeks
Protocol: as §2

[5] = test system: ABUTH (Abutylon threophrasti); test: Post-emergence herbicidal action against ABUTH; conditions: visual assessment after about 3 weeks
Protocol: as §2

[6] = test system: MATIN (Matricaria inodora); test: Pre-emergence herbicidal effect against MATIN; conditions: scored visually after 3 weeks
Description: as §1

SETVI (Setaria viridis) [7] = test: Post-emergence herbicidal action against SETVI; conditions: visual assessment after about 3 weeks
Protocol: as §2

VERPE (Veronica persica) [8] = test: Post-emergence herbicidal action against VERPE; conditions: visual assessment after about 3 weeks
Protocol: as §2

[9] = test system: ECHCG (Echinochloa crus-galli); test: Pre-emergence herbicidal effect against ECHCG; conditions: scored visually after 3 weeks
Description: as §1

VIOTR (Viola tricolor) [10] = test: Post-emergence herbicidal action against VIOTR; conditions: visual assessment after about 3 weeks
Protocol: as §2

[11] = test system: DIGSA (Digitaria sanguinalis); test: Pre-emergence herbicidal effect against DIGSA; conditions: scored visually after 3 weeks
Description: as §1

KCHSC (Kochia scoparia) [12] = test: Post-emergence herbicidal action against KCHSC; conditions: visual assessment after about 3 weeks
Protocol: as §2

[13] = test system: PHBPU (Pharbitis purpurea); test: Post-emergence herbicidal action against PHBPU; conditions: visual assessment after about 3 weeks
Protocol: as §2

AVEFA (Avena fatua) [14] = test: Post-emergence herbicidal action against AVEFA; conditions: 80 g/ha, visual assessment after about 3 weeks
Protocol: as §2

[15] = test system: ABUTH (Abutylon threophrasti); test: Pre-emergence herbicidal effect against ABUTH; conditions: scored visually after 3 weeks
Description: as §1

[16] = test system: AMARE (Amaranthus retroflexus); test: Pre-emergence herbicidal effect against AMARE; conditions: scored visually after 3 weeks
Description: as §1

[17] = test system: AMARE (Amaranthus retroflexus); test: Post-emergence herbicidal action against AMARE; conditions: visual assessment after about 3 weeks
Protocol: as §2

VIOTR (Viola tricolor) [18] = test: Pre-emergence herbicidal effect against VIOTR; conditions: scored visually after 3 weeks
Description: as §1

SETVI (Setaria viridis) [19] = test: Pre-emergence herbicidal effect against SETVI; conditions: scored visually after 3 weeks
Description: as §1

VERPE (Veronica persica) [20] = test: Pre-emergence herbicidal effect against VERPE; conditions: scored visually after 3 weeks
Description: as §1

[21] = test system: PHBPU (Pharbitis purpurea); test: Pre-emergence herbicidal effect against PHBPU; conditions: 80 g/ha, scored visually after 3 weeks
Description: as §1

[22] = test system: DIGSA (Digitaria sanguinalis); test: Post-emergence herbicidal action against DIGSA; conditions: visual assessment after about 3 weeks
Protocol: as §2

CS(=O)(=O)c1c(OC(F)F)ccc(C(=O)Nc2nnco2)c1Cl [Example 1-25, 2-chloro-4-(difluoromethoxy)-3-(methylsulfonyl)-N-(1,3,4-oxadiazol-2-yl)benzamide]
Pre-emergence effect at 80 g/ha against A VEFA in % (AVEFA (Avena fatua) [1]): 90%
Pre-emergence effect at 80 g/ha against LOLRI in % (LOLRI (Lolium rigidum)): 90%
Pre-emergence effect at 20 g/ha against KCHSC in % (KCHSC (Kochia scoparia) [2]; 20 g/ha): 100%
Pre-emergence effect at 80 g/ha against KCHSC in % (KCHSC (Kochia scoparia) [2]; 80 g/ha): 100%
Post-emergence effect at 20 g/ha against ECHCG in % ([3]; 20 g/ha): 80%
Post-emergence effect at 80 g/ha against ECHCG in % ([3]; 80 g/ha): 100%
Post-emergence effect at 20 g/ha against MATIN in % ([4]; 20 g/ha): 100%
Post-emergence effect at 80 g/ha against MATIN in % ([4]; 80 g/ha): 100%
Post-emergence effect at 20 g/ha against ABUTH in % ([5]; 20 g/ha): 100%
Post-emergence effect at 80 g/ha against ABUTH in % ([5]; 80 g/ha): 100%
Pre-emergence effect at 20 g/ha against MATIN in % ([6]; 20 g/ha): 100%
Pre-emergence effect at 80 g/ha against MATIN in % ([6]; 80 g/ha): 100%
Post-emergence effect at 20 g/ha against SETVI in % (SETVI (Setaria viridis) [7]; 20 g/ha): 100%
Post-emergence effect at 80 g/ha against SETVI in % (SETVI (Setaria viridis) [7]; 80 g/ha): 100%
Post-emergence effect at 20 g/ha against VERPE in % (VERPE (Veronica persica) [8]; 20 g/ha): 90%
Post-emergence effect at 80 g/ha against VERPE in % (VERPE (Veronica persica) [8]; 80 g/ha): 100%
Pre-emergence effect at 20 g/ha against ECHCG in % ([9]; 20 g/ha): 100%
Pre-emergence effect at 80 g/ha against ECHCG in % ([9]; 80 g/ha): 100%
Post-emergence effect at 20 g/ha against VIOTR in % (VIOTR (Viola tricolor) [10]; 20 g/ha): 100%
Post-emergence effect at 80 g/ha against VIOTR in % (VIOTR (Viola tricolor) [10]; 80 g/ha): 100%
Pre-emergence effect at 20 g/ha against DIGSA in % ([11]; 20 g/ha): 100%
Pre-emergence effect at 80 g/ha against DIGSA in % ([11]; 80 g/ha): 100%
Post-emergence effect at 20 g/ha against KCHSC in % (KCHSC (Kochia scoparia) [12]; 20 g/ha): 100%
Post-emergence effect at 80 g/ha against KCHSC in % (KCHSC (Kochia scoparia) [12]; 80 g/ha): 100%
Post-emergence effect at 20 g/ha against PHBPU in % ([13]; 20 g/ha): 100%
Post-emergence effect at 80 g/ha against PHBPU in % ([13]; 80 g/ha): 100%
Post-emergence effect at 80 g/ha against AVEFA in % (AVEFA (Avena fatua) [14]): 100%
Pre-emergence effect at 20 g/ha against ABUTH in % ([15]; 20 g/ha): 100%
Pre-emergence effect at 80 g/ha against ABUTH in % ([15]; 80 g/ha): 100%
Pre-emergence effect at 20 g/ha against AMARE in % ([16]; 20 g/ha): 100%
Pre-emergence effect at 80 g/ha against AMARE in % ([16]; 80 g/ha): 100%
Post-emergence effect at 20 g/ha against AMARE in % ([17]; 20 g/ha): 100%
Post-emergence effect at 80 g/ha against AMARE in % ([17]; 80 g/ha): 100%
Pre-emergence effect at 20 g/ha against VIOTR in % (VIOTR (Viola tricolor) [18]; 20 g/ha): 100%
Pre-emergence effect at 80 g/ha against VIOTR in % (VIOTR (Viola tricolor) [18]; 80 g/ha): 100%
Pre-emergence effect at 20 g/ha against SETVI in % (SETVI (Setaria viridis) [19]; 20 g/ha): 100%
Pre-emergence effect at 80 g/ha against SETVI in % (SETVI (Setaria viridis) [19]; 80 g/ha): 100%
Pre-emergence effect at 20 g/ha against VERPE in % (VERPE (Veronica persica) [20]; 20 g/ha): 90%
Pre-emergence effect at 80 g/ha against VERPE in % (VERPE (Veronica persica) [20]; 80 g/ha): 100%
Pre-emergence effect at 80 g/ha against PHBPU in % [21]: 90%
Post-emergence effect at 20 g/ha against DIGSA in % ([22]; 20 g/ha): 100%
Post-emergence effect at 80 g/ha against DIGSA in % ([22]; 80 g/ha): 100%
